We go through 7 cell lines from the supplement of paper PMC10307832.

What all share (assay): relative viability (nuclei count vs DMSO), 5 days (fraction); higher = more cells survive
Compound in experiment [1]: Cc1cnc(Nc2ccc(OCCN3CCCC3)cc2)nc1Nc1cccc(S(=O)(=O)NC(C)(C)C)c1 [Fedratinib] + COc1cccc2cc(-c3nc([C@H]4CC[C@H](C(=O)O)CC4)n4ncnc(N)c34)[nH]c12 [OSI-027] (partner 0.5 µM)
The method in brief:
(§1)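 Each reported value is a median over duplicate plates. It expresses relative viability: treated-well nuclei count divided by vehicle-well nuclei count. Lung cancer cell lines in 1536-well plates were dosed by pin tool a day after seeding, alone with one drug or with a fixed anchor-drug dose plus five library-drug doses (not always all listed) in √10 steps, and nuclei were counted after 5 days.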

Compound in experiment [2]: Cc1cnc(Nc2ccc(OCCN3CCCC3)cc2)nc1Nc1cccc(S(=O)(=O)NC(C)(C)C)c1 [Fedratinib] + CC1(C)CCC(c2ccc(Cl)cc2)=C(CN2CCN(c3ccc(C(=O)NS(=O)(=O)c4ccc(N[C@H](CCN5CCOCC5)CSc5ccccc5)c(S(=O)(=O)C(F)(F)F)c4)cc3)CC2)C1 [Navitoclax] (partner 0.5 µM)
The method, boiled down:
as §1

Compound in experiment [3]: COC1=CC=C(C=C1)COC2=C(C=C(C=C2)CC3=CN=C(N=C3N)N)OC [GW-2580] + CS(=O)(=O)CCNCc1ccc(-c2ccc3ncnc(Nc4ccc(OCc5cccc(F)c5)c(Cl)c4)c3c2)o1 [Lapatinib] (partner 2 µM)
The method in brief:
as §1

Compound in experiment [4]: Cc1cnc(Nc2ccc(OCCN3CCCC3)cc2)nc1Nc1cccc(S(=O)(=O)NC(C)(C)C)c1 [Fedratinib] + CCNC(=O)c1noc(-c2cc(C(C)C)c(O)cc2O)c1-c1ccc(CN2CCOCC2)cc1 [Luminespib] (partner 0.01 µM)
The method, boiled down:
as §1

Compound in experiment [5]: Cc1cnc(Nc2ccc(OCCN3CCCC3)cc2)nc1Nc1cccc(S(=O)(=O)NC(C)(C)C)c1 [Fedratinib] + NC(=O)Nc1cc(-c2cccc(F)c2)sc1C(=O)N[C@H]1CCCNC1 [AZD7762] (partner 0.2 µM)
The method, boiled down:
as §1

Compound in experiment [6]: Cc1cnc(Nc2ccc(OCCN3CCCC3)cc2)nc1Nc1cccc(S(=O)(=O)NC(C)(C)C)c1 [Fedratinib] + Cc1nc(Nc2ncc(C(=O)Nc3c(C)cccc3Cl)s2)cc(N2CCN(CCO)CC2)n1 [Dasatinib] (partner 0.075 µM)
The method, boiled down:
as §1

With LXF-289, the relative viability was found to be 0.796 in experiment [1] (first compound 0.1 µM); 0.792 in experiment [1] (first compound 0.3162 µM); 0.791 in experiment [1] (first compound 1 µM); 0.925 in experiment [2] (first compound 0.1 µM); 0.875 in experiment [2] (first compound 0.3162 µM); 0.939 in experiment [2] (first compound 1 µM). In addition, the relative viability turned out to be 0.941 in experiment [3] (first compound 0.08 µM); 0.946 in experiment [3] (first compound 0.8 µM); 0.815 in experiment [3] (first compound 2.53 µM); 0.829 in experiment [3] (first compound 8 µM); 0.741 in experiment [4] (first compound 0.1 µM); 0.665 in experiment [4] (first compound 0.3162 µM). Further, the relative viability in experiment [4] (first compound 1 µM) stood at 0.747; in experiment [5] (first compound 0.1 µM), 1.08; in experiment [5] (first compound 0.3162 µM), 1.07; in experiment [5] (first compound 1 µM) it was 0.966; in experiment [6] (first compound 0.1 µM), 0.249; in experiment [6] (first compound 0.3162 µM) it was 0.158. In addition, the relative viability in experiment [6] (first compound 1 µM) turned out to be 0.203.

Regarding NCI-H23, the relative viability in experiment [1] (first compound 0.1 µM) came to 0.579; in experiment [1] (first compound 0.3162 µM), 0.654; in experiment [1] (first compound 1 µM) it was 0.525; in experiment [2] (first compound 0.1 µM), 0.87; in experiment [2] (first compound 0.3162 µM) it was 0.75; in experiment [2] (first compound 1 µM), 0.73. The relative viability in experiment [3] (first compound 0.08 µM) came out at 1.03; in experiment [3] (first compound 0.8 µM), 1.09; in experiment [3] (first compound 2.53 µM), 0.936; in experiment [3] (first compound 8 µM), 1.25; in experiment [4] (first compound 0.1 µM) it was 0.193; in experiment [4] (first compound 0.3162 µM), 0.212. Moreover, the relative viability came to 0.204 in experiment [4] (first compound 1 µM); 0.356 in experiment [5] (first compound 0.1 µM); 0.27 in experiment [5] (first compound 0.3162 µM); 0.183 in experiment [5] (first compound 1 µM); 0.805 in experiment [6] (first compound 0.1 µM); 0.415 in experiment [6] (first compound 0.3162 µM). Also, the relative viability in experiment [6] (first compound 1 µM) came to 0.911.

Turning to NCI-H322M, the relative viability in experiment [1] (first compound 0.1 µM) came out at 0.548; in experiment [1] (first compound 0.3162 µM) it was 0.566; in experiment [1] (first compound 1 µM) it was 0.462; in experiment [2] (first compound 0.1 µM) it was 1.16; in experiment [2] (first compound 0.3162 µM) it was 1.18; in experiment [2] (first compound 1 µM), 1.23. Also, the relative viability amounted to 0.547 in experiment [3] (first compound 0.08 µM); 0.627 in experiment [3] (first compound 0.8 µM); 0.592 in experiment [3] (first compound 2.53 µM); 0.573 in experiment [3] (first compound 8 µM); 0.59 in experiment [4] (first compound 0.1 µM); 0.849 in experiment [4] (first compound 0.3162 µM). Further, the relative viability in experiment [4] (first compound 1 µM) amounted to 0.49; in experiment [5] (first compound 0.1 µM), 0.596; in experiment [5] (first compound 0.3162 µM), 0.591; in experiment [5] (first compound 1 µM), 0.414; in experiment [6] (first compound 0.1 µM), 0.254; in experiment [6] (first compound 0.3162 µM), 0.24. The relative viability in experiment [6] (first compound 1 µM) turned out to be 0.222.

As to NCI-H460, the relative viability was determined as 0.642 in experiment [1] (first compound 0.1 µM); 0.645 in experiment [1] (first compound 0.3162 µM); 0.507 in experiment [1] (first compound 1 µM); 1.05 in experiment [2] (first compound 0.1 µM); 1.03 in experiment [2] (first compound 0.3162 µM); 0.969 in experiment [2] (first compound 1 µM). For the same cell line, the relative viability in experiment [3] (first compound 0.08 µM) stood at 1.86; in experiment [3] (first compound 0.8 µM), 1.31; in experiment [3] (first compound 2.53 µM), 0.689; in experiment [3] (first compound 8 µM), 1.01; in experiment [4] (first compound 0.1 µM), 0.0244; in experiment [4] (first compound 0.3162 µM), 0.0389. Further, the relative viability in experiment [4] (first compound 1 µM) is 0.0213; in experiment [5] (first compound 0.1 µM) it was 0.738; in experiment [5] (first compound 0.3162 µM) it was 0.563; in experiment [5] (first compound 1 µM), 0.544; in experiment [6] (first compound 0.1 µM), 0.496; in experiment [6] (first compound 0.3162 µM), 0.415. Besides, the relative viability in experiment [6] (first compound 1 µM) is 0.329.

Take NCI-H596: the relative viability in experiment [1] (first compound 0.1 µM) is 0.577; in experiment [1] (first compound 0.3162 µM) it was 0.727; in experiment [1] (first compound 1 µM), 0.746; in experiment [2] (first compound 0.1 µM) it was 0.853; in experiment [2] (first compound 0.3162 µM), 0.992; in experiment [2] (first compound 1 µM) it was 0.976. Besides, the relative viability in experiment [3] (first compound 0.08 µM) stood at 1.25; in experiment [3] (first compound 0.8 µM), 1.2; in experiment [3] (first compound 2.53 µM), 0.996; in experiment [3] (first compound 8 µM), 1.2; in experiment [4] (first compound 0.1 µM), 0.962; in experiment [4] (first compound 0.3162 µM) it was 1.2. Also, the relative viability is 0.875 in experiment [4] (first compound 1 µM); 0.965 in experiment [5] (first compound 0.1 µM); 1.04 in experiment [5] (first compound 0.3162 µM); 1.13 in experiment [5] (first compound 1 µM); 0.512 in experiment [6] (first compound 0.1 µM); 0.628 in experiment [6] (first compound 0.3162 µM). In addition, the relative viability in experiment [6] (first compound 1 µM) was found to be 0.538.

NCI-H647: the relative viability in experiment [1] (first compound 0.1 µM) was found to be 0.625; in experiment [1] (first compound 0.3162 µM) it was 0.697; in experiment [1] (first compound 1 µM), 0.444; in experiment [2] (first compound 0.1 µM), 1.14; in experiment [2] (first compound 0.3162 µM) it was 1.2; in experiment [2] (first compound 1 µM), 0.97. Further, the relative viability was 1.22 in experiment [3] (first compound 0.08 µM); 1.29 in experiment [3] (first compound 0.8 µM); 0.926 in experiment [3] (first compound 2.53 µM); 1.15 in experiment [3] (first compound 8 µM); 0.15 in experiment [4] (first compound 0.1 µM); 0.209 in experiment [4] (first compound 0.3162 µM). Also, the relative viability came to 0.177 in experiment [4] (first compound 1 µM); 0.424 in experiment [5] (first compound 0.1 µM); 0.444 in experiment [5] (first compound 0.3162 µM); 0.249 in experiment [5] (first compound 1 µM); 0.21 in experiment [6] (first compound 0.1 µM); 0.203 in experiment [6] (first compound 0.3162 µM). In addition, the relative viability in experiment [6] (first compound 1 µM) came to 0.142.

Take NCI-H727: the relative viability is 0.504 in experiment [1] (first compound 0.1 µM); 0.674 in experiment [1] (first compound 0.3162 µM); 0.534 in experiment [1] (first compound 1 µM); 0.381 in experiment [2] (first compound 0.1 µM); 0.346 in experiment [2] (first compound 0.3162 µM); 0.213 in experiment [2] (first compound 1 µM). Further, the relative viability in experiment [3] (first compound 0.08 µM) stood at 0.792; in experiment [3] (first compound 0.8 µM), 1.04; in experiment [3] (first compound 2.53 µM) it was 0.735; in experiment [3] (first compound 8 µM), 0.791; in experiment [4] (first compound 0.1 µM), 0.269; in experiment [4] (first compound 0.3162 µM), 0.301. The relative viability in experiment [4] (first compound 1 µM) stood at 0.375; in experiment [5] (first compound 0.1 µM), 0.639; in experiment [5] (first compound 0.3162 µM), 0.465; in experiment [5] (first compound 1 µM), 0.576; in experiment [6] (first compound 0.1 µM), 0.296; in experiment [6] (first compound 0.3162 µM), 0.299. In experiment [6] (first compound 1 µM), the relative viability is 0.392.
